In EP4678638A1, “NEW E3 UBIQUITIN LIGASE LIGAND, PROTEIN DEGRADATION AGENT AND USE THEREOF” (priority 2023, dated 2024):

Assays:
[1] = target: T1, RSK1 (Homo sapiens, UniProt Q15418); assay: Western blot degradation of RSK1 (hPBMC); format: cell-based; details: Table D8
T1 construct: evaluate the effects of the compounds of the present disclosure on the expression of target proteins in cells; endogenous in cells; host or cells: hPBMC
Procedure: (§1) Conventional Western blot assay was performed to evaluate the effects of the compounds of the present disclosure on the expression of target proteins in cells.
(§2) (1) Cell Seeding and Protein Harvesting: The selected cells were processed according to the cell seeding procedure and protein harvesting procedure in Table III-2. Table III-2 Cell Seeding and Protein Harvesting Procedures
(§3) (2) To the collected supernatant, 5X SDS sample loading buffer was added, followed by denaturation at 95°C for 5 minutes. The denatured samples were then separated by SDS-PAGE electrophoresis on a polyacrylamide gel. Proteins were transferred to a nitrocellulose membrane (0.45 µm NC membrane), blocked with blocking buffer at room temperature for 1 hour, and subjected to antibody incubation and development procedures according to the antibody manufacturer's instructions (Cell Signaling Technology).
(§4) Half-Maximal Degradation Concentration value (the drug concentration required for degrading proteins by 50%, abbreviated as DC50) reads method: comparing the grayscale values of Western blot bands from drug-treated samples with those from blank DMSO-treated controls, and identifying the drug concentration range at which the grayscale value is half that of the DMSO-treated control bands.
(§5) DC50 values can be calculated using ImageJ software to measure grayscale values of Western blot bands from drug-treated samples. The concentration-response curve is fitted to estimate the drug concentration corresponding to half the grayscale value.
(§6) Target protein remaining (%) refers to the percentage of target protein remaining in hPBMC cells after treatment with protein degrader compounds.
(§7) Calculation method for target protein remaining (%): Use ImageJ software to measure grayscale values of Western blot bands from drug (protein degrader)-treated samples. The grayscale value of drug-treated bands is divided by that of internal control protein bands, and the resulting quotient is normalized to obtain the relative percentage of remaining target protein after protein degrader treatment.
(§8) Target protein degradation rate (%) = 100% - target protein remaining (%).

[2] = target: T2, RSK2 (Homo sapiens, UniProt P51812); assay: Western blot degradation of RSK2 (hPBMC); format: cell-based; details: Table D8
T2 construct: evaluate the effects of the compounds of the present disclosure on the expression of target proteins in cells; endogenous in cells; host or cells: hPBMC
T2 sequence (P51812 whole entry): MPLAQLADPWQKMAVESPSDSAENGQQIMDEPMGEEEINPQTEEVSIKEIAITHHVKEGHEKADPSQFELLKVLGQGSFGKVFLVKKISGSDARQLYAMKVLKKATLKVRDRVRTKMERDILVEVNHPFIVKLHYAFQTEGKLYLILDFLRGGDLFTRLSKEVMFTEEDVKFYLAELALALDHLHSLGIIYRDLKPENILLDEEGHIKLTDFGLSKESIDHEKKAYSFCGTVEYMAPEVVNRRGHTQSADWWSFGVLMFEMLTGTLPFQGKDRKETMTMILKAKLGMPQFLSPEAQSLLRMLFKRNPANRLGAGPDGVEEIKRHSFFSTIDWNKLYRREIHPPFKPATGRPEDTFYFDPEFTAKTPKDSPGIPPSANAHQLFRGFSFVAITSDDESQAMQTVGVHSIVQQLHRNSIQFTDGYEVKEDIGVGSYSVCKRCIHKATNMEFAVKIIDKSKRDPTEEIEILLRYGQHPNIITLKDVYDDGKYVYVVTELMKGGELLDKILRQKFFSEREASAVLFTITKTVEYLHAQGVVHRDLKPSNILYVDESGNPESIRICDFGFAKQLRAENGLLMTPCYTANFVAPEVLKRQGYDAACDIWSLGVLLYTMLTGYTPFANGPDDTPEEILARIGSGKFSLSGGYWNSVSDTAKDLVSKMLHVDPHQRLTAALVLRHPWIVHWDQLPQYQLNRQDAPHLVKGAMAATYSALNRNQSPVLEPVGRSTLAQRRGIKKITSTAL
Procedure: as §1, §2, §3, §4, §5, §6, §7, §8

T1 sequence (Q15418 whole entry): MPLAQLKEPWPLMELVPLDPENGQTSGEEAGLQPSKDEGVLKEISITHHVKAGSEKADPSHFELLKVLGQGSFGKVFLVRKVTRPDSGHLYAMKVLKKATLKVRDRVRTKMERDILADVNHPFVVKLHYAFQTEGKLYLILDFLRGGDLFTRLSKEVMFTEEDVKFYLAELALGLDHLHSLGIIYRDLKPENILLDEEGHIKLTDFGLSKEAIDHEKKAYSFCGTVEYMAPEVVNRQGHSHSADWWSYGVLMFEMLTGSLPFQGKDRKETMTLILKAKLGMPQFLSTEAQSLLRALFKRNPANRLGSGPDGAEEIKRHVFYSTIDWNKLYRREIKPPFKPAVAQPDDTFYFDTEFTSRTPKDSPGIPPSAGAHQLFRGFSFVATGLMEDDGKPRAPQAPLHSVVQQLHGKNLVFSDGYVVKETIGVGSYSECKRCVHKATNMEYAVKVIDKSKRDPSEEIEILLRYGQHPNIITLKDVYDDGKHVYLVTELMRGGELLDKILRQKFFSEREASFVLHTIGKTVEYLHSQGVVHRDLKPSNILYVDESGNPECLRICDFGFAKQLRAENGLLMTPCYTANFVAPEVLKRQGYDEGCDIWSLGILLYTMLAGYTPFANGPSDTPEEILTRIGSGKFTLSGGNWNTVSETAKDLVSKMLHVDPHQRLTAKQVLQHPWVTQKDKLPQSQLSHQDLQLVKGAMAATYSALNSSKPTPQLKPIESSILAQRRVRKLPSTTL

Compound | Degradation of substrate protein RSK1 (substrate protein remaining %) [1] | Degradation of substrate protein RSK2 (substrate protein remaining %) [2]
C[C@@H]1CNC(=O)c2cc3ccc(C(=O)Nc4cnn(Cc5ccc(N6CCN(Cc7cc(N8CCC(=O)NC8=O)ncc7F)CC6)cc5)c4)nc3n21 [GT-07797, (R)-N-(1-(4-(4-((2-(2,4-dioxotetrahydropyrimidin-1(2H)-yl)-5-fluoropyridin-4-yl)methyl)piperazin-1-yl)benzyl)-1H-pyrazol-4-yl)-9-methyl-6-oxo-6,7,8,9-tetrahydropyrido[3',2':4,5]py rrolo[1,2-a]pyrazine-2-carboxamide] | A (A is defined as 0% ≤ substrate protein remaining % ≤ 80%) | A (A is defined as 0% ≤ substrate protein remaining % ≤ 80%)
C[C@@H]1CNC(=O)c2cc3ccc(C(=O)Nc4cnn(Cc5ccc(N6CCC(N(C)Cc7ccc(N8CCC(=O)NC8=O)cc7)CC6)cc5)c4)nc3n21 [GT-07938, (R)-N-(1-(4-(4-((4-(2,4-dioxotetrahydropyrimidin-1(2H)-yl)benzyl)(methyl)amino)piperidin-1-yl)benzyl)-1H-pyrazol-4-yl)-9-methyl-6-oxo-6,7,8,9-tetrahydropyrido[3',2':4,5]py rrolo[1,2-a]pyrazine-2-carboxamide] | A (A is defined as 0% ≤ substrate protein remaining % ≤ 80%) | B (B is defined as substrate protein remaining % > 80%)
C[C@@H]1CNC(=O)c2cc3ccc(C(=O)Nc4cnn(Cc5ccc(N6CCC(N(C)Cc7cnc(N8CCC(=O)NC8=O)cn7)CC6)cc5)c4)nc3n21 [GT-07950, (R)-N-(1-(4-(4-(((5-(2,4-dioxotetrahydropyrimidin-1(2H)-yl)pyrazin-2-yl)methyl)(methyl)amino)piperidin-1-yl)benzyl)-1H-pyrazol-4-yl)-9-methyl-6-oxo-6,7,8,9-tetrahydropyrido[3',2':4,5]py rrolo[1,2-a]pyrazine-2-carboxamide] | A (A is defined as 0% ≤ substrate protein remaining % ≤ 80%) | A (A is defined as 0% ≤ substrate protein remaining % ≤ 80%)
C[C@@H]1CNC(=O)c2cc3ccc(C(=O)Nc4cnn(Cc5ccc(N6CCN(Cc7ncc(C8CCC(=O)NC8=O)cc7F)CC6)cc5)c4)nc3n21 (stereo partly drawn) [GT-07933, (9R)-N-(1-(4-(4-((5-(2,6-dioxopiperidin-3-yl)-3-fluoropyridin-2-yl)methyl)piperazin-1-yl)benzyl)-1H-pyrazol-4-yl)-9-methyl-6-oxo-6,7,8,9-tetrahydropyrido[3',2':4,5]py rrolo[1,2-a]pyrazine-2-carboxamide] | A (A is defined as 0% ≤ substrate protein remaining % ≤ 80%) | B (B is defined as substrate protein remaining % > 80%)
C[C@@H]1CNC(=O)c2cc3ccc(C(=O)Nc4cnn(Cc5ccc(N6CCC(N(C)Cc7cccc(N8CCC(=O)NC8=O)c7)CC6)cc5)c4)nc3n21 [GT-07939, (R)-N-(1-(4-(4-((3-(2,4-dioxotetrahydropyrimidin-1(2H)-yl)benzyl)(methyl)amino)piperidin-1-yl)benzyl)-1H-pyrazol-4-yl)-9-methyl-6-oxo-6,7,8,9-tetrahydropyrido[3',2':4,5]py rrolo[1,2-a]pyrazine-2-carboxamide] | A (A is defined as 0% ≤ substrate protein remaining % ≤ 80%) | B (B is defined as substrate protein remaining % > 80%)
C[C@@H]1CNCc2cc3ccc(C(=O)Nc4cnn(Cc5ccc(N6CCC(N(C)Cc7ccc(N8CCC(=O)NC8=O)nc7)CC6)cc5)c4)nc3n21 [GT-07941, (R)-N-(1-(4-(4-(((6-(2,4-dioxotetrahydropyrimidin-1(2H)-yl)pyridin-3-yl)methyl)(methyl)amino)piperidin-1-yl)benzyl)-1H-pyrazol-4-yl)-9-methyl-6,7,8,9-tetrahydropyrido[3',2':4,5]py rrolo[1,2-a]pyrazine-2-carboxamide] | A (A is defined as 0% ≤ substrate protein remaining % ≤ 80%) | A (A is defined as 0% ≤ substrate protein remaining % ≤ 80%)
C[C@@H]1CNC(=O)c2cc3ccc(C(=O)Nc4cnn(Cc5ccc(N6CCN(Cc7cc(C8CCC(=O)NC8=O)cnc7F)CC6)cc5)c4)nc3n21 (stereo partly drawn) [GT-07932, (9R)-N-(1-(4-(4-((5-(2,6-dioxopiperidin-3-yl)-2-fluoropyridin-3-yl)methyl)piperazin-1-yl)benzyl)-1H-pyrazol-4-yl)-9-methyl-6-oxo-6,7,8,9-tetrahydropyrido[3',2':4,5]py rrolo[1,2-a]pyrazine-2-carboxamide] | A (A is defined as 0% ≤ substrate protein remaining % ≤ 80%) | B (B is defined as substrate protein remaining % > 80%)
C[C@@H]1CNC(=O)c2cc3ccc(C(=O)Nc4cnn(Cc5ccc(N6CCC(N7CCN(Cc8cccc(NC9CCC(=O)NC9=O)c8)CC7)CC6)cc5)c4)nc3n21 (stereo partly drawn) [GT-07956, (9R)-N-(1-(4-(4-(4-(3-((2,6-dioxopiperidin-3-yl)amino)benzyl)piperazin-1-yl)piperidin-1-yl)benzyl)-1H-pyrazol-4-yl)-9-methyl-6-oxo-6,7,8,9-tetrahydropyrido[3',2':4,5]pyrrolo[1,2-a]pyrazine-2-carboxamide] | A (A is defined as 0% ≤ substrate protein remaining % ≤ 80%) | A (A is defined as 0% ≤ substrate protein remaining % ≤ 80%)
C[C@@H]1CNC(=O)c2cc3ccc(C(=O)Nc4cnn(Cc5ccc(N6CCN(Cc7cccc(NC8CCC(=O)NC8=O)c7)CC6)cc5)c4)nc3n21 (stereo partly drawn) [GT-07931, (9R)-N-(1-(4-(4-(3-((2,6-dioxopiperidin-3-yl)amino)benzyl)piperazin-1-yl)benzyl)-1H-pyrazol-4-yl)-9-methyl-6-oxo-6,7,8,9-tetrahydropyrido[3',2':4,5]py rrolo[1,2-a]pyrazine-2-carboxamide] | A (A is defined as 0% ≤ substrate protein remaining % ≤ 80%) | A (A is defined as 0% ≤ substrate protein remaining % ≤ 80%)
C[C@@H]1CNC(=O)c2cc3ccc(C(=O)Nc4cnn(Cc5ccc(NCc6cc(N7CCC(=O)NC7=O)ncc6F)cc5)c4)nc3n21 [GT-07794, (R)-N-(1-(4-(((2-(2,4-dioxotetrahydropyrimidin-1(2H)-yl)-5-fluoropyridin-4-yl)methyl)amino)benzyl)-1H-pyrazol-4-yl)-9-methyl-6-oxo-6,7,8,9-tetrahydropyrido[3',2':4,5]pyrrolo[1,2-a]pyrazine-2-carboxamide] | A (A is defined as 0% ≤ substrate protein remaining % ≤ 80%) | B (B is defined as substrate protein remaining % > 80%)
C[C@@H]1CNC(=O)c2cc3ccc(C(=O)Nc4cnn(Cc5ccc(N6CCC(N(C)Cc7ccnc(N8CCC(=O)NC8=O)c7)CC6)cc5)c4)nc3n21 [GT-07944, (R)-N-(1-(4-(4-(((2-(2,4-dioxotetrahydropyrimidin-1(2H)-yl)pyridin-4-yl)methyl)(methyl)amino)piperidin-1-yl)benzyl)-1H-pyrazol-4-yl)-9-methyl-6-oxo-6,7,8,9-tetrahydropyrido[3',2':4,5]py rrolo[1,2-a]pyrazine-2-carboxamide] | A (A is defined as 0% ≤ substrate protein remaining % ≤ 80%) | A (A is defined as 0% ≤ substrate protein remaining % ≤ 80%)
C[C@@H]1CNC(=O)c2cc3ccc(C(=O)Nc4cnn(Cc5ccc(N6CCN(Cc7ccnc(N8CCC(=O)NC8=O)c7)CC6)cc5)c4)nc3n21 [GT-07798, (R)-N-(1-(4-(4-((2-(2,4-dioxotetrahydropyrimidin-1(2H)-yl)pyridin-4-yl)methyl)piperazin-1-yl)benzyl)-1H-pyrazol-4-yl)-9-methyl-6-oxo-6,7,8,9-tetrahydropyrido[3',2':4,5]py rrolo[1,2-a]pyrazine-2-carboxamide] | A (A is defined as 0% ≤ substrate protein remaining % ≤ 80%) | A (A is defined as 0% ≤ substrate protein remaining % ≤ 80%)
C[C@@H]1CNC(=O)c2cc3ccc(C(=O)Nc4cnn(Cc5ccc(N6CCN(Cc7ccc(N8CCC(=O)NC8=O)cc7)CC6)cc5)c4)nc3n21 [GT-07927, (R)-N-(1-(4-(4-(4-(2,4-dioxotetrahydropyrimidin-1(2H)-yl)benzyl)piperazin-1-yl)benzyl)-1H-pyrazol-4-yl)-9-methyl-6-oxo-6,7,8,9-tetrahydropyrido[3',2':4,5]py rrolo[1,2-a]pyrazine-2-carboxamide] | A (A is defined as 0% ≤ substrate protein remaining % ≤ 80%) | A (A is defined as 0% ≤ substrate protein remaining % ≤ 80%)
